Test results from patent US20030104945A1, “2,4-Diamino-1,3,5-triazines, their preparation, and their use as herbicides and plant growth regulators” (priority 2001, published 2003).

Assays:
Format in all cases: in vivo
[1] = test system: harmful plants such as Stellaria media, Lolium multiflorum, Amaranthus retroflexus, Sinapis alba, Avena sativa and Setaria viridis; experiment: Pre-emergence herbicidal action (greenhouse pot test); conditions: application rate of 1 kg or less active substance per hectare, scored after 3 to 4 weeks vs untreated controls
Source text: Seeds and rhizome sections of monocotyledonous and dicotyledonous harmful plants are placed in sandy loam in plastic pots and covered with soil. The compounds according to the invention which are formulated in the form of wettable powders or emulsion concentrates at various rates, are then applied to the surface of the covering soil as aqueous suspension or emulsion at an application rate of 600 to 800 l of water per ha (converted).
After the treatment, the pots are placed in the greenhouse and kept under good growth conditions for the weeds. Visual scoring of the plant damage or the adverse effect on emergence is done after the test plants have emerged after an experimental period of 3 to 4 weeks in comparison with untreated controls.

[2] = test system: harmful plants such as Sinapis alba, Echinochloa crus-galli, Lolium multiflorum, Stellaria media, Cyperus iria, Amaranthus retroflexus, Setaria viridus and …; experiment: Post-emergence herbicidal action (greenhouse pot test); conditions: three-leaf stage, application rate of 1 kg and less of active substance per hectare, scored after approx. 3 to 4 weeks vs untreated controls
Experimental: Seeds or rhizome sections of monocotyledonous and dicotyledonous weeds are placed in sandy loam soil in plastic pots, covered with soil and grown in the greenhouse under good growth conditions. Three weeks after sowing, the experimental plants are treated at the three-leaf stage. The compounds according to the invention, which are formulated as wettable powders or as emulsion concentrates, are sprayed at various rates onto the green plant organs at an application rate of 600 to 800 l of water per ha (converted). After the experimental plants have remained in the greenhouse for approx. 3 to 4 weeks under optimal growth conditions, the effect of the compositions is scored visually in comparison with untreated controls. The substances according to the invention also have a good herbicidal action against a broad spectrum of economically important grass weeds and broad-leaved weeds when applied post-emergence.

[3] = test system: harmful plants which are typical of rice crops such as, for example, Cyperus monti, Echinochloa crus-galli and Sagittaria pygmaea; experiment: Activity against harmful plants in rice (paddy rice conditions); conditions: poured into paddy water at various dosages; scored about three weeks after application vs untreated controls; further: test concentration or dose not given here
Experimental: Transplanted and seeded rice and typical grass weeds and broad-leaved weeds in rice crops are grown in the greenhouse under paddy rice conditions (depth of the paddy water: 2-3 cm) in sealed plastic pots until they have reached the three-leaf stage (Echinochloa crus-galli 1.5-leaf). They are then treated with the compounds according to the invention. To this end, the formulated active substances are suspended, dissolved or emulsified in water and the product is poured into the paddy water of the test plants at various dosages. After the treatment has been carried out thus, the test plants are placed in the greenhouse under optimal growth conditions and kept like this over the entire experimental period.
About three weeks after application, the evaluation is carried out by is of visually scoring the plant damage in comparison with untreated controls.

CC(C)c1nc(N)nc(NC(C)[C@@H]2C[C@H]2c2ccccc2)n1 (relative stereo) [Example 1-4]
very good herbicidal activity: herbicidal activity, visual scoring of plant damage or adverse effect on emergence [1] | herbicidal activity, visual scoring [2] | herbicidal activity, visual scoring of plant damage [3]

CCC(F)(CC)c1nc(N)nc(NC(CC2CC2)[C@@H]2C[C@H]2c2ccccc2)n1 (relative stereo) [Example 5-3]
very good herbicidal activity: herbicidal activity, visual scoring of plant damage or adverse effect on emergence [1] | herbicidal activity, visual scoring [2] | herbicidal activity, visual scoring of plant damage [3]

CC(C)c1nc(N)nc(NC(C2CC2)[C@@H]2C[C@H]2c2cc(Cl)cc(Cl)c2)n1 (relative stereo) [Example 3-28]
very good herbicidal activity: herbicidal activity, visual scoring of plant damage or adverse effect on emergence [1] | herbicidal activity, visual scoring [2] | herbicidal activity, visual scoring of plant damage [3]

CC(C)c1nc(N)nc(NC(C2CC2)[C@@H]2C[C@H]2c2ccccc2)n1 (relative stereo) [Example 3-2]
very good herbicidal activity: herbicidal activity, visual scoring of plant damage or adverse effect on emergence [1] | herbicidal activity, visual scoring [2] | herbicidal activity, visual scoring of plant damage [3]

CC(C)(F)c1nc(N)nc(NC(C2CCC2)[C@@H]2C[C@H]2c2cccc(Cl)c2)n1 (relative stereo) [Example 4-28]
very good herbicidal activity: herbicidal activity, visual scoring of plant damage or adverse effect on emergence [1] | herbicidal activity, visual scoring [2] | herbicidal activity, visual scoring of plant damage [3]

CCC(F)c1nc(N)nc(NC(C2CC2)[C@@H]2C[C@H]2c2cc(Cl)cc(Cl)c2)n1 (relative stereo) [Example 3-27]
very good herbicidal activity: herbicidal activity, visual scoring of plant damage or adverse effect on emergence [1] | herbicidal activity, visual scoring [2] | herbicidal activity, visual scoring of plant damage [3]

CCc1nc(N)nc(NC(C)[C@@H]2C[C@H]2c2ccccc2)n1 (relative stereo) [Example 1-6]
very good herbicidal activity: herbicidal activity, visual scoring of plant damage or adverse effect on emergence [1] | herbicidal activity, visual scoring [2] | herbicidal activity, visual scoring of plant damage [3]

CC(F)c1nc(N)nc(NC(C)[C@@H]2C[C@H]2c2ccccc2)n1 (relative stereo) [Example 1-2, 2-Amino-4-(1-fluoroethyl)-6-[1-(trans-2-phenylcyclopropyl)-1-ethylamino]-1,3,5-triazine]
very good herbicidal activity: herbicidal activity, visual scoring of plant damage or adverse effect on emergence [1] | herbicidal activity, visual scoring [2] | herbicidal activity, visual scoring of plant damage [3]

CCC(Nc1nc(N)nc(C(C)F)n1)[C@@H]1C[C@H]1c1ccccc1 (relative stereo) [Example 2-3]
very good herbicidal activity: herbicidal activity, visual scoring of plant damage or adverse effect on emergence [1] | herbicidal activity, visual scoring [2] | herbicidal activity, visual scoring of plant damage [3]

CCC(F)c1nc(N)nc(NC(C2CCC2)[C@@H]2C[C@H]2c2ccccc2)n1 (relative stereo) [Example 4-4]
very good herbicidal activity: herbicidal activity, visual scoring of plant damage or adverse effect on emergence [1] | herbicidal activity, visual scoring [2] | herbicidal activity, visual scoring of plant damage [3]

CCC(F)(CC)c1nc(N)nc(NC(C2CCC2)[C@@H]2C[C@H]2c2ccccc2)n1 (relative stereo) [Example 4-2]
very good herbicidal activity: herbicidal activity, visual scoring of plant damage or adverse effect on emergence [1] | herbicidal activity, visual scoring [2] | herbicidal activity, visual scoring of plant damage [3]

CC(F)c1nc(N)nc(NC(C2CC2)[C@@H]2C[C@H]2c2cc(Cl)cc(Cl)c2)n1 (relative stereo) [Example 3-26]
very good herbicidal activity: herbicidal activity, visual scoring of plant damage or adverse effect on emergence [1] | herbicidal activity, visual scoring [2] | herbicidal activity, visual scoring of plant damage [3]

CC(C)c1nc(N)nc(NC(C2CCC2)[C@@H]2C[C@H]2c2ccccc2)n1 (relative stereo) [Example 4-27]
very good herbicidal activity: herbicidal activity, visual scoring of plant damage or adverse effect on emergence [1] | herbicidal activity, visual scoring [2] | herbicidal activity, visual scoring of plant damage [3]

CCC(F)c1nc(N)nc(NC(CC)[C@@H]2C[C@H]2c2ccccc2)n1 (relative stereo) [Example 2-8]
very good herbicidal activity: herbicidal activity, visual scoring of plant damage or adverse effect on emergence [1] | herbicidal activity, visual scoring [2] | herbicidal activity, visual scoring of plant damage [3]

CCC(Nc1nc(N)nc(C(C)C)n1)[C@@H]1C[C@H]1c1ccccc1 (relative stereo) [Example 2-2]
very good herbicidal activity: herbicidal activity, visual scoring of plant damage or adverse effect on emergence [1] | herbicidal activity, visual scoring [2] | herbicidal activity, visual scoring of plant damage [3]

CC(F)c1nc(N)nc(NC(C2CCC2)[C@@H]2C[C@H]2c2ccccc2)n1 (relative stereo) [Example 4-3]
very good herbicidal activity: herbicidal activity, visual scoring of plant damage or adverse effect on emergence [1] | herbicidal activity, visual scoring [2] | herbicidal activity, visual scoring of plant damage [3]

CCC(F)c1nc(N)nc(NC(C2CC2)[C@@H]2C[C@H]2c2ccccc2)n1 (relative stereo) [Example 3-4]
very good herbicidal activity: herbicidal activity, visual scoring of plant damage or adverse effect on emergence [1] | herbicidal activity, visual scoring [2] | herbicidal activity, visual scoring of plant damage [3]

CC(C)(F)c1nc(N)nc(NC(C2CC2)[C@@H]2C[C@H]2c2ccccc2)n1 (relative stereo) [Example 3-1]
very good herbicidal activity: herbicidal activity, visual scoring of plant damage or adverse effect on emergence [1] | herbicidal activity, visual scoring [2] | herbicidal activity, visual scoring of plant damage [3]

CC(C)(F)c1nc(N)nc(NC(C2CCC2)[C@@H]2C[C@H]2c2ccccc2)n1 (relative stereo) [Example 4-1]
very good herbicidal activity: herbicidal activity, visual scoring of plant damage or adverse effect on emergence [1] | herbicidal activity, visual scoring [2] | herbicidal activity, visual scoring of plant damage [3]

CCC(Nc1nc(N)nc(C(C)(C)F)n1)[C@@H]1C[C@H]1c1ccccc1 (relative stereo) [Example 2-1, 2-Amino-4-(1-fluoro-1-methylethyl)-6-[1-(trans-2-phenylcyclopropyl)prop-1-ylamino]-1,3,5-triazine]
very good herbicidal activity: herbicidal activity, visual scoring of plant damage or adverse effect on emergence [1] | herbicidal activity, visual scoring [2] | herbicidal activity, visual scoring of plant damage [3]

CC(C)c1nc(N)nc(NC(CC2CC2)[C@@H]2C[C@H]2c2ccccc2)n1 (relative stereo) [Example 5-2]
very good herbicidal activity: herbicidal activity, visual scoring of plant damage or adverse effect on emergence [1] | herbicidal activity, visual scoring [2] | herbicidal activity, visual scoring of plant damage [3]

CC(C)(F)c1nc(N)nc(NC(CC2CC2)[C@@H]2C[C@H]2c2ccccc2)n1 (relative stereo) [Example 5-1]
very good herbicidal activity: herbicidal activity, visual scoring of plant damage or adverse effect on emergence [1] | herbicidal activity, visual scoring [2] | herbicidal activity, visual scoring of plant damage [3]

CCC(F)c1nc(N)nc(NC(C)[C@@H]2C[C@H]2c2ccccc2)n1 (relative stereo) [Example 1-3]
very good herbicidal activity: herbicidal activity, visual scoring of plant damage or adverse effect on emergence [1] | herbicidal activity, visual scoring [2] | herbicidal activity, visual scoring of plant damage [3]

CCC(F)c1nc(NC=O)nc(NC(CC2CC2)[C@@H]2C[C@H]2c2ccccc2)n1 (relative stereo) [Example 5-4]
very good herbicidal activity: herbicidal activity, visual scoring of plant damage or adverse effect on emergence [1] | herbicidal activity, visual scoring [2] | herbicidal activity, visual scoring of plant damage [3]
